The assay deals with T1, oxidase type xanthine oxidase (derived from buttermilk) (Bos taurus, UniProt P80457).
T1 construct: oxidase type xanthine oxidase (derived from buttermilk, supplied by Calbiochem Novabiochem Corp.); purchased Calbiochem Novabiochem Corp; host or cells: buttermilk (natural source)
Description: Xanthine oxidase inhibitory activity (absorbance change at 290 nm). The following applies: xanthine substrate, 100 mM phosphate buffer, absorbance at 290 nm for 5 minutes; read-out: Inhibitory Activity (50% inhibitory concentration with respect to oxidase type xanthine oxidase). In kind it is biochemical. How it is done:
The xanthine oxidase inhibitory activity was measured for the compounds synthesized according to the above Examples.
After a test compound was dissolved in DMSO (manufactured by Sigma Co.) so that the concentration is 20 mM, the test compound was prepared and used at a desired concentration at the time of use.
The evaluation of the xanthine oxidase inhibitory activity of the compounds of the present invention was conducted by partially modifying the method described in the literature (Method Enzymatic Analysis, 1, 521-522, 1974). The present evaluation is based on the oxidase type xanthine oxidase inhibitory activity evaluation. That is, a xanthine (manufactured by Sigma Co.) solution prepared at 10 mM in advance using a 20 mM sodium hydroxide solution was adjusted to 30 μM using a 100 mM phosphate buffer solution, and 75 μL/well of each solution was added into a 96-well plate. Aliquots (1.5 μL/well) of each test sample, which was diluted with DMSO so that the concentration is 100 times the final concentration, were added into a 96-well plate, and after mixing, the absorbance at 290 nm was measured by a microplate reader SPECTRA MAX Plus 384 (manufactured by Molecular Devices, LLC). Subsequently, oxidase type xanthine oxidase (derived from buttermilk, supplied by Calbiochem Novabiochem Corp.) was prepared at 30.6 mU/mL using a 100 mM phosphate buffer solution and 73.5 μL/well of each solution was added. Immediately after mixing, the change in absorbance at 290 nm was measured for 5 minutes. The enzyme activity when DMSO was used instead of a test compound solution was defined as 100%, the inhibitory rate of the test compounds was calculated and the 50% inhibitory concentration with respect to oxidase type xanthine oxidase was calculated by fitting to the dose-response curve.
Note that the symbols (+, ++, +++) in the table represent inhibitory activity values as shown below.

T1 sequence (P80457 whole entry): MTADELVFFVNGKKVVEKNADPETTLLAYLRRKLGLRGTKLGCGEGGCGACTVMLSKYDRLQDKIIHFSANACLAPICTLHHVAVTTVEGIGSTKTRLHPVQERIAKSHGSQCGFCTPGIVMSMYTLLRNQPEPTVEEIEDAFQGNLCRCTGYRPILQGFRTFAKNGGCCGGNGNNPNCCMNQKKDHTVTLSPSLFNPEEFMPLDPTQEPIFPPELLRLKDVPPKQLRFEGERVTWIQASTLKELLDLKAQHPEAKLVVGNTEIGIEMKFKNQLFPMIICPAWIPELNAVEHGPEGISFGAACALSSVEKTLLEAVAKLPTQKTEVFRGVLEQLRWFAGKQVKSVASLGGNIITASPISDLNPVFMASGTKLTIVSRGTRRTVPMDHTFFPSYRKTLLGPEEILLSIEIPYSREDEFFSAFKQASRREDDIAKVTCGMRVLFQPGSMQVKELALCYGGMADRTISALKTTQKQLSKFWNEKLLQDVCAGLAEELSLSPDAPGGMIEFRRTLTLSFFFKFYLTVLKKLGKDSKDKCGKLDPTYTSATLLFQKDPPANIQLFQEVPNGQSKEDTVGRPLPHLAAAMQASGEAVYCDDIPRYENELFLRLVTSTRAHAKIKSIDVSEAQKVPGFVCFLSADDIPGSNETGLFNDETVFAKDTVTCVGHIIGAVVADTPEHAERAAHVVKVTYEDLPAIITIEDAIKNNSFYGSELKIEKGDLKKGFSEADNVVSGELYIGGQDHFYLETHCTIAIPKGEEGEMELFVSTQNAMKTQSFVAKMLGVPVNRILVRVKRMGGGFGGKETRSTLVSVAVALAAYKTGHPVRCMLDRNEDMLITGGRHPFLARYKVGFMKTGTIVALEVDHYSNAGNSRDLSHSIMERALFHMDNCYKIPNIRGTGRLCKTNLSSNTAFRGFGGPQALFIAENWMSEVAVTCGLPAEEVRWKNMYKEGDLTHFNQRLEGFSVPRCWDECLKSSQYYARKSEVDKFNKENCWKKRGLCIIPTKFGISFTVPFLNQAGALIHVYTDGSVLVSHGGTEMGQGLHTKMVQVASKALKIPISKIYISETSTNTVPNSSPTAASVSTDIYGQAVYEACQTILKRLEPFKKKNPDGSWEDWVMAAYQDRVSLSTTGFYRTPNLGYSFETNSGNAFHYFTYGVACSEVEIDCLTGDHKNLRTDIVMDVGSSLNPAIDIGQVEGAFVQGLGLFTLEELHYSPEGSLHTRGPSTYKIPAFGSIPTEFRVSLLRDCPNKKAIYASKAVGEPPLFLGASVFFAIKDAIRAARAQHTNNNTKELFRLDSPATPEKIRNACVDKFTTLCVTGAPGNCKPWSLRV

Take `Cc1cc(-c2cnc(-n3cc(C(=O)O)cn3)cc2C#N)ccc1F` [Compound 37, 1-[4-cyano-5-(4-fluoro-3-methylphenyl)pyridin-2-yl]-1H-pyrazole-4-carboxylic acid]: the IC50 was in the range of 1 to 5 nM.

Take `COc1ccccc1-c1cnc(-n2cc(C(=O)O)cn2)cc1C#N` [Compound 7, 1-[4-cyano-5-(2-methoxyphenyl)pyridin-2-yl]-1H-pyrazole-4-carboxylic]: the IC50 lay within 1 to 5 nM.

Consider `COc1cnccc1-c1cnc(-n2cc(C(=O)O)cn2)cc1C#N` [Compound 24, 1-[4-cyano-5-(3-methoxypyridin-4-yl)pyridin-2-yl]-1H-pyrazole-4-carboxylic acid], for which the IC50 was not below 10 nM.

For the compound `N#Cc1cc(-n2cc(C(=O)O)cn2)ncc1-c1ccc(C(=O)c2ccccc2)cc1` [Compound 73, 1-[5-(4-benzoylphenyl)-4-cyanopyridin-2-yl]-1H-pyrazole-4-carboxylic acid], the IC50 fell in the range of 1 to 5 nM.

In the case of `N#Cc1cc(-n2cc(C(=O)O)cn2)ncc1-c1ccc(F)c(Cl)c1` [Compound 40, 1-[4-cyano-5-(3-chloro-4-fluorophenyl)pyridin-2-yl]-1H-pyrazole-4-carboxylic acid], the IC50 lay within 5 to 10 nM.

Turning to `CC(C)Oc1ccc(-c2cnc(-n3cc(C(=O)O)cn3)cc2C#N)cc1` [Compound 52], the IC50 lay within 1 to 5 nM.

For the compound `N#Cc1cc(-n2cc(C(=O)O)cn2)ncc1-c1cncc(F)c1` [Compound 60, 1-[4-cyano-5-(5-fluoropyridin-3-yl)pyridin-2-yl]-1H-pyrazole-4-carboxylic acid], the IC50 is not below 10 nM.

For `CC(C)COc1cccc(-c2cnc(-n3cc(C(=O)O)cn3)cc2C#N)c1` [Compound 56], the IC50 was in the range of 5 to 10 nM.

As for `Cc1cccc(-c2cnc(-n3cc(C(=O)O)c(N)n3)cc2C#N)c1` [Compound 101, 3-amino-1-[4-cyano-5-(3-methylphenyl)pyridin-2-yl]-1H-pyrazole-4-carboxylic acid], the IC50 lay within 1 to 5 nM.

As to `Cc1ccc(F)c(-c2cnc(-n3cc(C(=O)O)c(N)n3)cc2C#N)c1` [Compound 104, 3-amino-1-[4-cyano-5-(2-fluoro-5-methylphenyl)pyridin-2-yl]-1H-pyrazole-4-carboxylic acid], the IC50 fell in the range of 1 to 5 nM.

`N#Cc1cc(-n2cc(C(=O)O)cn2)ncc1-c1csc2ccccc12` [Compound 61, 1-[5-(1-benzothiophen-3-yl)-4-cyanopyridin-2-yl]-1H-pyrazole-4-carboxylic acid]: the IC50 is 1 to 5 nM.

With `CCCOc1cccc(-c2cnc(-n3cc(C(=O)O)cn3)cc2C#N)c1` [Compound 31, 1-[4-cyano-5-(3-propoxyphenyl)pyridin-2-yl]-1H-pyrazole-4-carboxylic acid], the IC50 was in the range of 1 to 5 nM.

Regarding `Cc1cc(-c2ncc(-n3cc(C(=O)O)cn3)cc2C#N)ccc1F` [Compound 82, 1-[5-cyano-6-(4-fluoro-3-methylphenyl)pyridin-3-yl]-1H-pyrazole-4-carboxyic acid], the IC50 is not below 10 nM.

Take `N#Cc1cc(-n2cc(C(=O)O)cn2)ncc1-c1ccc(O)cc1` [Compound 16, 1-[4-cyano-5-(4-hydroxyphenyl)pyridin-2-yl]-1H-pyrazole-4-carboxylic acid]: the IC50 is 1 to 5 nM.

Consider `N#Cc1cc(-n2cc(C(=O)O)c(N)n2)ncc1-c1ccc(F)cc1F` [Compound 105, 3-amino-1-[4-cyano-5-(2,4-difluorophenyl)pyridin-2-yl]-1H-pyrazole-4-carboxylic acid], for which the IC50 lay in the range of 1 to 5 nM.

As for `Cc1ccccc1-c1cnc(-n2cc(C(=O)O)cn2)cc1C#N` [Compound 4, 1-[4-cyano-5-(2-methylphenyl)pyridin-2-yl]-1H-pyrazole-4-carboxylic acid], the IC50 fell in the range of 5 to 10 nM.

For `CC(C)(C)c1ccc(-c2cnc(-n3cc(C(=O)O)cn3)cc2C#N)cc1` [Compound 53, 1-[5-(4-tert-butylphenyl)-4-cyanopyridin-2-yl]-1H-pyrazole-4-carboxylic acid], the IC50 lay in the range of 1 to 5 nM.

Take `COc1ccc(F)c(-c2ccc(-n3cc(C(=O)O)cn3)nc2C#N)c1` [Compound 91, 1-[6-cyano-5-(2-fluoro-5-methoxyphenyl)pyridin-2-yl]-1H-pyrazole-4-carboxylic acid]: the IC50 was 5 to 10 nM.

As to `Cc1ccc(F)c(-c2ccc(-n3cc(C(=O)O)cn3)nc2C#N)c1` [Compound 88, 1-[6-cyano-5-(2-fluoro-5-methylphenyl)pyridin-2-yl]-1H-pyrazole-4-carboxylic acid], the IC50 is not below 10 nM.

For `N#Cc1cc(-n2cc(C(=O)O)cn2)ncc1-c1ccccc1C(F)(F)F` [Compound 8, 1-{4-cyano-5-[2-(trifluoromethyl)phenyl]pyridin-2-yl}-1H-pyrazole-4-carboxylic acid], the IC50 is not below 10 nM.

As to `CC(C)c1nn(-c2cc(C#N)c(-c3ccccc3)cn2)cc1C(=O)O` [Compound 27, 1-(4-cyano-5-phenylpyridin-2-yl)-3-(propan-2-yl)-1H-pyrazole-4-carboxylic acid], the IC50 was not below 10 nM.

Turning to `N#Cc1cc(-n2cc(C(=O)O)cn2)ncc1-c1ccncc1` [Compound 62, 1-[4-cyano-5-(pyridin-4-yl)pyridin-2-yl]-1H-pyrazole-4-carboxylic acid], the IC50 is not below 10 nM.

`N#Cc1cc(-n2cc(C(=O)O)c(N)n2)ncc1-c1ccccc1F` [Compound 98, 3-amino-1-[4-cyano-5-(2-fluorophenyl)pyridin-2-yl]-1H-pyrazole-4-carboxylic acid]: the IC50 fell in the range of 1 to 5 nM.

With `Cc1nn(-c2cc(C#N)c(-c3ccccc3)cn2)c(C)c1C(=O)O` [Compound 28, 1-(4-cyano-5-phenylpyridin-2-yl)-3,5-dimethyl-1H-pyrazole-4-carboxylic acid], the IC50 is not below 10 nM.

Consider `Cc1ccc(-c2cnc(-n3cc(C(=O)O)c(N)n3)cc2C#N)c(F)c1` [Compound 103, 3-amino-1-[4-cyano-5-(2-fluoro-4-methylphenyl)pyridin-2-yl]-1H-pyrazole-4-carboxylic acid], for which the IC50 was 1 to 5 nM.

With `Cc1ccc(F)c(-c2ncc(-n3cc(C(=O)O)cn3)cc2C#N)c1` [Compound 79, 1-[5-cyano-6-(2-fluoro-5-methylphenyl)pyridin-3-yl]-1H-pyrazole-4-carboxylic acid], the IC50 was not below 10 nM.

As for `CCOc1cccc(-c2ccc(-n3cc(C(=O)O)cn3)nc2C#N)c1` [Compound 93, 1-[6-cyano-5-(3-ethoxyphenyl)pyridin-2-yl]-1H-pyrazole-4-carboxylic acid], the IC50 is not below 10 nM.

For the compound `Cc1cccc(-c2cnc(-n3cc(C(=O)O)cn3)cc2C#N)c1C` [Compound 38, 1-[4-cyano-5-(2,3-dimethylphenyl)pyridin-2-yl]-1H-pyrazole-4-carboxylic acid], the IC50 fell in the range of 1 to 5 nM.

As to `N#Cc1cc(-n2cc(C(=O)O)c(N)n2)ncc1-c1ccccc1` [Compound 97, 3-amino-1-(4-cyano-5-phenylpyridin-2-yl)-1H-pyrazole-4-carboxylic acid], the IC50 was 1 to 5 nM.

As to `N#Cc1cc(-n2cc(C(=O)O)cn2)ncc1-c1ccc(OC(F)(F)F)cc1` [Compound 44, 1-{4-cyano-5-[4-(trifluoromethoxy)phenyl]pyridin-2-yl}-1H-pyrazole-4-carboxylic acid], the IC50 lay in the range of 1 to 5 nM.

With `CC(C)c1ccc(-c2cnc(-n3cc(C(=O)O)cn3)cc2C#N)cc1` [Compound 47, 1-[4-cyano-5-[4-(propane-2-yl)phenyl]pyridin-2-yl}-1H-pyrazole-4-carboxylic acid], the IC50 was in the range of 1 to 5 nM.

`N#Cc1cc(-n2cc(C(=O)O)c(N)n2)ncc1-c1ccc(Cl)cc1` [Compound 100, 3-amino-1-[4-cyano-5-(4-chlorophenyl)pyridin-2-yl]-1H-pyrazole-4-carboxylic acid]: the IC50 was in the range of 1 to 5 nM.

For the compound `COc1ccc(-c2cnc(-n3cc(C(=O)O)cn3)cc2C#N)cc1` [Compound 2, 1-[4-cyano-5-(4-methoxyphenyl)pyridin-2-yl]-1H-pyrazole-4-carboxylic acid], the IC50 was in the range of 1 to 5 nM.

With `COc1ccc(F)c(-c2ncc(-n3cc(C(=O)O)cn3)cc2C#N)c1` [Compound 84, 1-[5-cyano-6-(2-fluoro-5-methoxyphenyl)pyridin-3-yl]-1H-pyrazole-4-carboxylic acid], the IC50 was in the range of 5 to 10 nM.

Turning to `N#Cc1cc(-n2cc(C(=O)O)cn2)ncc1-c1cccnc1` [Compound 25, 1-[4-cyano-5-(pyridin-3-yl)pyridin-2-yl]-1H-pyrazole-4-carboxylic acid], the IC50 was not below 10 nM.

On to `N#Cc1cc(-n2cc(C(=O)O)cn2)cnc1-c1cccc(F)c1F` [Compound 81, 1-[5-cyano-6-(2,3-difluorophenyl)pyridin-3-yl]-1H-pyrazole-4-carboxylic acid], for which the IC50 was not below 10 nM.

Regarding `N#Cc1nc(-n2cc(C(=O)O)cn2)ccc1-c1ccc(F)cc1F` [Compound 90, 1-[6-cyano-5-(2,4-difluorophenyl)pyridin-2-yl]-1H-pyrazole-4-carboxylic acid], the IC50 was not below 10 nM.

Values taken from patent publication US9617240B2 (TEIJIN PHARMA LIMITED, priority 2013, dated 2017).
